Each structure is given as a SMILES string.

One data set can be described thus: in vitro. The following applies: human, hela cells, % viability.
On to `COc1ccc2cc(C(=O)N3Cc4cnn(CCO)c4C3)n(C)c2c1` [CBK306707], for which the viability (commonly a read-out of living cells in per cent, often relative to untreated cells) at 28.5 h, 10 µM worked out at 94.5%.
Same read-out and setting: as for `Cc1nc(CC(NC(=O)C(c2ccccc2)c2ccccc2)c2ccc(F)cc2)cc(=O)[nH]1` (centres unmarked) [CBK285669], the figure is 101%; as for `c1csc(N2CCN(c3nccn4cnnc34)CC2)n1` [CBK305185], 103%; as for `Cc1cc(NC(=O)c2ccc(Cl)c([N+](=O)[O-])c2)nc2c1c(=O)oc1ccccc12` [CBK291263], 96.7%.
On to `COc1cccc2cc(-c3cncn3CCCC(C)(C)CO)oc12` [CBK281817], for which the viability at 28.5 h, 10 µM stood at 112%.
With `COc1ccc(OC)c(NC(=O)CSc2nnc(-c3ccncc3)s2)c1` [CBK269209], the viability at 28.5 h, 10 µM stood at 97.2%.
Still for that read-out and setting: as for `Nc1ncc(-c2ccc(C(=O)N3CCOCC3)cc2)nc1-c1ccsc1` [CBK200422], the figure is 110%; as for `O=C1NC2(CCN(C(=O)CC3c4ccccc4Oc4ccccc43)CC2)Nc2ccccc21` [CBK286307], 98.8%; as for `CC1CCc2n[nH]c(C(=O)NCCCC3CCOC3)c2C1` (centres unmarked) [CBK283212], 102%.
The same measure, in the same setting: then `CCCCCn1c(=O)c(C(=O)NCc2ccc(Cl)cc2)c(O)c2ccccc21` [CBK291131], with 117%; and `O=C1CSC2(C(=O)Nc3ccccc32)N1c1cccc(F)c1` (centres unmarked) [CBK093488], with 99.2%.
`COc1ccc(CN2CCCN(C(=O)c3cccc(C#N)c3)CC2)cc1` [CBK305281]: the viability at 28.5 h, 10 µM is 88.5%.
`Cc1nc([N+](=O)[O-])cn1CCC(=O)Nc1ccccc1Oc1ccccc1Cl` [CBK298319]: the viability at 28.5 h, 10 µM turned out to be 101%.
In the case of `COc1ccc2c(c1)CCC(c1ccccc1)=C2c1ccc(OCC(O)CN)cc1` (centres unmarked) [CBK015723C], the viability at 28.5 h, 10 µM stood at 70.5%.
Consider `Cc1cc(C(=O)N2CC[C@H]3NC(=O)c4ccccc4OCCCCC[C@H]3C2)no1` [CBK292005], for which the viability at 28.5 h, 10 µM was 91.8%.
Regarding `O=C(NCCN1CCOCC1)c1ccc(-c2ccco2)nc1NCc1cccnc1` [CBK076112], the viability at 28.5 h, 10 µM was determined as 101%.
For the compound `Cn1c2ccccc2c2cc(C(O)(CC(=O)CC(O)(c3ccc4c(c3)c3ccccc3n4C)C(F)(F)F)C(F)(F)F)ccc21` (centres unmarked) [CBK262254], the viability at 28.5 h, 10 µM came to 88%.
For `O=C(NCc1cccc(C(F)(F)F)c1)N1CCN(CCN2CCOCC2)CC1` [CBK155671], the viability at 28.5 h, 10 µM amounted to 98.9%.
With `O=S(=O)(NCc1ccc(F)cc1Cl)c1ccc(Cl)c(Cl)c1` [CBK043785], the viability at 28.5 h, 10 µM is 91%.
On to `CCOc1cc(O)c(-c2nc(N)ncc2-c2ccc3c(c2)OCCO3)cc1CC` [CBK288174], for which the viability at 28.5 h, 10 µM was found to be 94.7%.
As to `c1nncn1/N=C1/CCCc2nonc21` [CBK261065], the viability at 28.5 h, 10 µM was found to be 91.8%.
Turning to `COCCC(=O)NC(Cc1ccsc1)c1nc(C)c(C)s1` (centres unmarked) [CBK284774], the viability at 28.5 h, 10 µM was 84.7%.
Take `CCOc1ccccc1NC(=O)NC(=O)C1CCN(CCCc2ccc3c(c2)OCO3)CC1` [CBK034924]: the viability at 28.5 h, 10 µM is 88.6%.
As for `CC1=NN(c2ccc(Cl)cc2)C(=O)/C1=C\Nc1nnn[nH]1` [CBK262407], the viability at 28.5 h, 10 µM amounted to 91%.
For the compound `CCc1nc2ccc(C(=O)N(C)CCN(C)C)cn2c1N(C)Cc1nccs1` [CBK145474], the viability at 28.5 h, 10 µM worked out at 96.8%.
`S=C(NCc1cccs1)NC1CC1` [CBK008520]: the viability at 28.5 h, 10 µM turned out to be 86.4%.
Same read-out and setting: as for `COC(=O)CSc1nnc(CSc2cc(C)nc(N3CCOCC3)n2)o1` [CBK007059], the figure is 96.1%; as for `O=c1ccc2cc(S(=O)(=O)Nc3ccc4[nH]ccc4c3)ccc2o1` [CBK062503], 54.8%.
With `CN1C[C@@H](NC(=O)Nc2cccc(C#N)c2)C[C@H]1c1nc(-c2ccncc2)no1` [CBK288856], the viability at 28.5 h, 10 µM worked out at 112%.
`O=C(CC1CCCC1)NCCn1nc(-c2ccco2)ccc1=O` [CBK283864]: the viability at 28.5 h, 10 µM came out at 106%.
For `CSc1ccccc1CNC(=O)Cn1nnc(-c2ccc(CN3CCC(C)CC3)cc2)n1` [CBK144573C], the viability at 28.5 h, 10 µM was determined as 93.2%.
`CCCNC(=O)Cn1c(=O)n(Cc2cccs2)c2ncccc21` [CBK283843]: the viability at 28.5 h, 10 µM turned out to be 101%.
`CN(C)C(=O)CN1N=C(C(C)(C)C)Cn2c(cc3sccc32)C1=O` [CBK284116]: the viability at 28.5 h, 10 µM came out at 89.5%.
With `N#CCCCN1CCCN(c2nccc(OCC3COc4ccccc4O3)n2)CC1` (centres unmarked) [CBK083977], the viability at 28.5 h, 10 µM was 90.2%.
With `Nc1ncc(-c2ccc(N3CCOCC3)cc2)nc1N1CCN(CCO)CC1` [CBK063394], the viability at 28.5 h, 10 µM was found to be 95.8%.
For `COc1cccc(C(c2ccccn2)N(C)C(=O)C2CCN(S(=O)(=O)c3c(C)noc3C)CC2)c1` (centres unmarked) [CBK060212], the viability at 28.5 h, 10 µM stood at 96.4%.
On to `COc1ccc([C@H]2CN(C(=O)c3ccccc3)[C@@H]3CCN(Cc4cccs4)C[C@H]23)cc1` [CBK285582], for which the viability at 28.5 h, 10 µM was found to be 103%.
With `NC(=O)C1CCN(CC(=O)Nc2cc(C(F)(F)F)ccc2Cl)CC1` [CBK269776], the viability at 28.5 h, 10 µM came out at 100%.
As for `O=C(Cn1cnnn1)NC1CCCC1` [CBK200372], the viability at 28.5 h, 10 µM was determined as 94.9%.
As to `CCC1CCCCN1Cc1nc2c(c(=O)n(C)c(=O)n2C)n1CCCO` (centres unmarked) [CBK269365], the viability at 28.5 h, 10 µM was 91.8%.
Regarding `COc1ccc(CNc2nccs2)c(O)c1` [CBK265690], the viability at 28.5 h, 10 µM worked out at 86.2%.
As for `OC1CCC(Nc2cncc(-c3cccc4ccccc34)n2)CC1` (centres unmarked) [CBK065902], the viability at 28.5 h, 10 µM is 90.2%.
With `Nc1nc2c(nc(Br)n2[C@H]2C[C@@H](O)[C@@H](CO)O2)c(=O)[nH]1` [CBK201333], the viability at 28.5 h, 10 µM is 108%.
The same measure, in the same setting: as for `Cc1ccc(C)c(S(=O)(=O)NCC(=O)Nc2nsc(-c3ccccc3)n2)c1` [CBK267304], the figure is 97.4%.
On the same count and under the same terms, as for `N=c1n(CCN2CCCCC2)c2ccccc2n1CC(O)COc1ccc(Cl)cc1Cl` (centres unmarked) [CBK266336C], the figure is 31%; as for `Nc1ccc(Oc2nc(Oc3ccc(N)cc3)c(F)c(Oc3ccc(N)cc3)c2F)cc1` [CBK266397C], 110%; as for `CCOC(=O)c1c(NC(=O)c2cc3ccccc3o2)sc2c1CCCC2` [CBK262552], 84%.
On to `CNC(=O)c1ccc(-n2ccnc2)c(-n2cccc2)c1` [CBK282461], for which the viability at 28.5 h, 10 µM came to 80.8%.
Regarding `CC(C)c1c(N)nc(SCc2ccccc2)nc1Cl` [CBK016721], the viability at 28.5 h, 10 µM stood at 123%.
The same measure, in the same setting: then `COc1ccccc1NC(=O)c1ccc(OCC(=O)O)cc1` [CBK265849], with 100%; and `CCOc1ccc(C(=O)Nc2nc(-c3ccc(F)cc3)cs2)cc1` [CBK072020], with 91%; and `Cn1nc(C2CCN(C(=O)c3cccc(F)c3)CC2)c2cccnc21` [CBK284898], with 94%.
In the case of `COc1cccc(S(=O)(=O)Nc2nn(Cc3ccc(C)cc3)c3ccccc23)c1` [CBK048043], the viability at 28.5 h, 10 µM worked out at 89.8%.
For the compound `CCn1cc(S(=O)(=O)NCc2ccccc2OC)cn1` [CBK270304], the viability at 28.5 h, 10 µM was determined as 98.1%.
`O=C(c1ccc(-c2cncc(-c3ccc(Cl)s3)n2)cc1)N1CCOCC1` [CBK138517]: the viability at 28.5 h, 10 µM is 92.2%.
Same read-out and setting: as for `Cc1nc2c(OCCOc3ccccc3)cccn2c1N(C)CC1CC1` [CBK147272], the figure is 96.8%; as for `CCC(=O)N1CCCc2cc(C(O)CN3CCCC(C)C3)ccc21` (centres unmarked) [CBK283049], 89.2%.
As for `COc1cc(OC)nc(N2CCN(c3nccnc3NS(=O)(=O)C3CC3)CC2)n1` [CBK048698], the viability at 28.5 h, 10 µM came to 109%.
As to `Cc1nc2c(c(=O)[nH]1)CC[C@@H]1CN(C(=O)c3cccs3)C[C@H]21` [CBK284406], the viability at 28.5 h, 10 µM is 88.7%.
On the same count and under the same terms, then `O=[N+]([O-])c1ccc(NC(c2ccccc2)C2CC2)nc1` (centres unmarked) [CBK295317], with 96.6%.
As to `COc1ccc(CCC(=O)Nc2ccccc2N2CCCNCC2)cc1` [CBK024286T], the viability at 28.5 h, 10 µM is 101%.
Same read-out and setting: then `O=C(Cc1cc(F)c(F)c(F)c1)Nc1ccc2[nH]ccc2c1` [CBK159684], with 91.7%; and `O=C(O)Cc1nnc(CNc2ccc(Cl)cc2)[nH]1` [CBK286651], with 81.7%; and `Nc1nc2c(nc(OCc3ccccc3)n2C2OC(CO)C(O)C2O)c(=O)[nH]1` (centres unmarked) [CBK201247], with 80.6%.
Turning to `CC(CNC(=O)Cn1nc(C(F)(F)F)c2c1CCC2)N1CCCC1` (centres unmarked) [CBK282212], the viability at 28.5 h, 10 µM was found to be 89.9%.
Same read-out and setting: then `Cc1cc(NS(=O)(=O)c2ccc(N3CCOCC3)nc2)n(C)n1` [CBK067253], with 117%; and `Cc1ccc(CN2CCCC3(C/C=C/COc4ccccc4C(=O)NCCNC3=O)C2)cn1` (centres unmarked) [CBK292022], with 94%.
Take `CC(=O)Nc1cccc(NC(=O)c2cc(-c3ccncc3)nc3ccc(Cl)cc23)c1` [CBK267773]: the viability at 28.5 h, 10 µM is 92.6%.
The same measure, in the same setting: then `O=C(O)c1cc(NC(=O)c2cccc(N3C(=O)c4ccc([N+](=O)[O-])cc4C3=O)c2)cc(C(=O)O)c1` [CBK261394], with 90.5%.
Same read-out and setting: then `CC(Nc1cc(Cl)c(C(F)(F)F)cc1[N+](=O)[O-])c1ccc2[nH]c(=O)[nH]c2c1` (centres unmarked) [CBK297721], with 86.7%; and `Cn1c2c(c3ccccc31)CCOC21CCN(Cc2ccc(OC(F)F)cc2)CC1` [CBK039975], with 95.8%.
As for `COc1ccc(C(=O)Nc2ccccc2Nc2cc(-c3ccccc3)nn2-c2ccccc2)cc1` [CBK261296], the viability at 28.5 h, 10 µM amounted to 88.4%.
Consider `O=S(=O)(Nc1ccc(C(O)(C(F)(F)F)C(F)(F)F)cc1)c1cccc2cccnc12` [CBK062092], for which the viability at 28.5 h, 10 µM turned out to be 91%.
Turning to `CC(NC(=O)CN(c1ccc(Cl)c(Cl)c1)S(=O)(=O)c1ccccc1)c1ccccc1` (centres unmarked) [CBK263781], the viability at 28.5 h, 10 µM was found to be 92.8%.
For `CC(=O)c1ccc(-c2ccc(C(=O)N3CCN(C)CC3)c(N3CCOCC3)n2)s1` [CBK106181], the viability at 28.5 h, 10 µM was 96.3%.
On the same count and under the same terms, as for `O=C(Cc1cccs1)N1CCC(n2nc(C3CC3)ccc2=O)CC1` [CBK284243], the figure is 78.6%.

The same data set, now with this note: human, hela cells, % viability, bulk resorufin, single well.
For the compound `CCOc1cc(C=C2C(=O)NC(=S)NC2=O)ccc1OCc1c(C)no[n+]1[O-]` [CBK263468], the viability at 28.5 h, 10 µM worked out at 99.3%.

Values taken from article PMC12040169 (PLOS Biology, 2025).
